≈ marks a conversion by molar mass, not a printed value. Like-named read-outs stand apart in the source and are kept apart here.
Key:
[1] = biological target: T1, full-length beta-Catenin (Uniprot ID P35222) (Homo sapiens, UniProt P35222); test: Fluorescence polarization IC50 (beta-catenin / 5FAM-TCF4 10-53 competition); type: binding
T1 construct: 10 nM full-length beta-Catenin (Uniprot ID P35222)
T1 sequence (P35222 1-781): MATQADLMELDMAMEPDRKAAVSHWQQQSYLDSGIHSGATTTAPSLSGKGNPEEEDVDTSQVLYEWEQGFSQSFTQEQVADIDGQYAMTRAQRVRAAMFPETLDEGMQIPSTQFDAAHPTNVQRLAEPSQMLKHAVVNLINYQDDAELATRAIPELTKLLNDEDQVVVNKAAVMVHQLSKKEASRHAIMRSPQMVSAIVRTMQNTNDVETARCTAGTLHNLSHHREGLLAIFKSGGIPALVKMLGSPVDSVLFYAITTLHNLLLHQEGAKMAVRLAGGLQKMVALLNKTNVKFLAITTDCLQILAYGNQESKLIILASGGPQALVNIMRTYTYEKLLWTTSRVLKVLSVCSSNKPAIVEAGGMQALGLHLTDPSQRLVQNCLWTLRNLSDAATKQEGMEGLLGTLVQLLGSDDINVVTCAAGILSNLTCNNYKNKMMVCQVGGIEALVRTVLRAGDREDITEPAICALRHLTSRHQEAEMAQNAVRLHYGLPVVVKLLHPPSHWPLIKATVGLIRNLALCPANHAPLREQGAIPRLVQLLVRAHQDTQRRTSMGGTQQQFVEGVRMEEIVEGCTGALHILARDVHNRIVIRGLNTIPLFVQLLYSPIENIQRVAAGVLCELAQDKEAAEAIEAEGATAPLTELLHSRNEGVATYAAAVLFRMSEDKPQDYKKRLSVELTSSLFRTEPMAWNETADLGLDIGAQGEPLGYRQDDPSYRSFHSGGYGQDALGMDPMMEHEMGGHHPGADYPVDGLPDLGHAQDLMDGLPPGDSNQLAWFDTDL

[2] = Solubility in PBS; type: physicochemical
Summary of the method: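 The PBS solution was ultracentrifuged and the supernatant analyzed by HPLC. Its peak area was divided by that of a 50 μM peptide DMSO reference injection and multiplied by 50 uM to give solubility.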

[3] = CHI Log D procedure; type: physicochemical
[4] = Table E2-1, read-out: beta-Catenin FP IC50
[5] = fluorescence polarization, beta-catenin, read-out: FP EC50
[6] = fluorescence polarization, read-out: beta-Catenin FP IC50

| Compound | IC50 [1, 5] | Solubility [2] | CHI Log D ([3]; pH 7.4) | IC50 [1, 6] | chromatographic logD ([3]; pH 7.4, CHI Log D) | further results |
| --- | --- | --- | --- | --- | --- | --- |
| CC(=O)N1CCC[C@]12CC=CCCCC1(CCCC=CCCCCCC[C@@](C)(C(=O)N[C@@H](Cc3ccccc3)C(=O)N[C@@H](Cc3csc4ccccc34)C(=O)N[C@@H](CCC(N)=O)C(N)=O)NC(=O)[C@H](CCC(N)=O)NC(=O)[C@H](Cc3cccc(C(F)(F)F)c3)NC(=O)[C@H](C)NC(=O)[C@H](C)NC(=O)[C@H](CC(=O)O)NC(=O)[C@H](CC(=O)O)NC1=O)NC(=O)[C@H](C)NC(=O)[C@H](CC(=O)O)NC2=O (stereo partly drawn) [I-380, Ac-PL3-Asp-Ala-B5-Asp-Asp-Ala-Ala-3F3MeF-Gln-S8-Phe-BztA-Gln-NH2] | 552 nM | 49 µM (≈ 92.9 µg/mL) | 2.19 | – | – | IC50 [1, 4]: 552 nM |
| CC(=O)N1CCC[C@]12CC=CCCCC1(CCCC=CCCCCCC[C@@](C)(C(=O)N[C@@H](Cc3ccccc3)C(=O)N[C@@H](Cc3csc4ccccc34)C(=O)N[C@@H](Cc3cn(C)cn3)C(N)=O)NC(=O)[C@H](CC(N)=O)NC(=O)[C@H](Cc3ccccc3)NC(=O)[C@H](C)NC(=O)[C@H](C)NC(=O)[C@H](CCC(=O)O)NC(=O)[C@H](CC(=O)O)NC1=O)NC(=O)[C@H](C)NC(=O)[C@H](CC(=O)O)NC2=O (stereo partly drawn) [I-479, Ac-PL3-Asp-Ala-B5-Asp-Glu-Ala-Ala-Phe-Asn-S8-Phe-BztA-1MeH-NH2] | – | 38 µM (≈ 70.3 µg/mL) | 2.094 | 27 nM | – | IC50 ([1]; read-out: FP EC50): 27 nM |
| CC(=O)N1CCC[C@]12CC=CCCCC1(CCCC=CCCCCCC[C@@](C)(C(=O)N[C@@H](Cc3ccccc3F)C(=O)N[C@@H](Cc3csc4ccccc34)C(=O)N[C@@H](CCC(N)=O)C(N)=O)NC(=O)[C@H](CC(N)=O)NC(=O)[C@H](Cc3ccccc3)NC(=O)[C@H](C)NC(=O)[C@H](C)NC(=O)[C@H](CCC(=O)O)NC(=O)[C@H](CC(=O)O)NC1=O)NC(=O)[C@H](C)NC(=O)[C@H](CC(=O)O)NC2=O (stereo partly drawn) [I-434, Ac-PL3-Asp-Ala-B5-Asp-Glu-Ala-Ala-Phe-Asn-S8-2FF-BztA-Gln-NH2] | – | – | – | 67.5 nM | 2.05 | Solubility ([2]; Solubility (uM)): 20 µM (≈ 36.9 µg/mL) |
| CC(=O)N1CCC[C@]12CC=CCCCC1(CCCC=CCCCCCC[C@@](C)(C(=O)N[C@@H](Cc3ccccc3)C(=O)N[C@@H](Cc3csc4ccccc34)C(=O)N[C@@H](Cc3c[nH]cn3)C(N)=O)NC(=O)[C@H](CCC(N)=O)NC(=O)[C@H](Cc3ccccc3)NC(=O)[C@H](C)NC(=O)[C@H](C)NC(=O)[C@H](CCC(=O)O)NC(=O)[C@H](CC(=O)O)NC1=O)NC(=O)[C@H](CC(F)(F)F)NC(=O)[C@H](CC(=O)O)NC2=O (stereo partly drawn) [I-504, Ac-PL3-Asp-F3CA-B5-Asp-Glu-Ala-Ala-Phe-Gln-S8-Phe-BztA-His-NH2] | – | – | – | 65 nM | 2.22 | Solubility ([2]; Solubility (uM)): 18 µM (≈ 34.5 µg/mL) |
| CC(=O)N1CCC[C@]12CC=CCCCC1(CCCC=CCCCOC(=O)N3CC[C@@](C(=O)N[C@@H](Cc4ccsc4)C(=O)N[C@@H](Cc4csc5ccccc45)C(=O)N[C@@H](CO)C(N)=O)(C3)NC(=O)[C@H](CO)NC(=O)[C@H](Cc3ccccc3)NC(=O)[C@H](C)NC(=O)[C@H](C)NC(=O)[C@H](CN(CC(=O)O)CC(F)(F)F)NC(=O)[C@H](CC(=O)O)NC1=O)NC(=O)[C@H](CC(C)(C)C)NC(=O)[C@H](CC(=O)O)NC2=O (stereo partly drawn) [I-955, Ac-PL3-Asp-Npg-B5-Asp-TfeGA-Ala-Ala-Phe-Ser-PyrS2-3Thi-BztA-Ser-NH2] | 1200 nM | 45 µM (≈ 88.3 µg/mL) | 1.998 | – | – | IC50 ([1]; read-out: beta-Catenin FP IC50): 1200 nM |
| CC(=O)N1CCC[C@]12CC=CCCCC1(CCCC=CCCCCCC[C@@](C)(C(=O)N[C@@H](Cc3cccc(F)c3)C(=O)N[C@@H](Cc3csc4ccccc34)C(=O)N[C@@H](CCC(N)=O)C(N)=O)NC(=O)[C@H](C(C)C)NC(=O)[C@H](Cc3ccccc3)NC(=O)[C@H](C)NC(=O)[C@H](C)NC(=O)[C@H](CC(N)=O)NC(=O)[C@H](CC(=O)O)NC1=O)NC(=O)[C@H](C)NC(=O)[C@H](CC(=O)O)NC2=O (stereo partly drawn) [I-382, Ac-PL3-Asp-Ala-B5-Asp-Asn-Ala-Ala-Phe-Val-S8-3FF-BztA-Gln-NH2] | 2060 nM | 10 µM (≈ 18.2 µg/mL) | 2.631 | – | – | IC50 [1, 4]: 2060 nM |
| CC(=O)N1CCC[C@]12CC=CCCCC1(CCCC=CCCCOC(=O)N3CC[C@@](C(=O)N[C@@H](Cc4ccc(O)cc4)C(=O)N[C@@H](Cc4csc5ccccc45)C(=O)N[C@@H](CCC(N)=O)C(N)=O)(C3)NC(=O)[C@H](Cc3ccccc3)NC(=O)[C@H](Cc3ccccc3)NC(=O)[C@H](C)NC(=O)[C@H](C)NC(=O)[C@H](CN(CC(=O)O)CC(F)(F)F)NC(=O)[C@H](CC(=O)O)NC1=O)NC(=O)[C@H](CC(C)(C)C)NC(=O)[C@H](CC(=O)O)NC2=O (stereo partly drawn) [I-989, Ac-PL3-Asp-Npg-B5-Asp-TfeGA-Ala-Ala-Phe-Phe-PyrS2-Tyr-BztA-Gln-NH2] | – | 10 µM (≈ 20.7 µg/mL) | – | – | 2.1 | IC50 ([1]; read-out: beta-Catenin FP IC50): 87 nM |
| CC[C@H](C)[C@@H]1NC(=O)[C@H](CC(=O)O)NC(=O)[C@]2(CC=CCCCC3(CCCC=CCCCCCC[C@@](C)(C(=O)N[C@@H](Cc4ccccc4)C(=O)N[C@@H](Cc4csc5ccccc45)C(=O)N[C@H](C(N)=O)[C@@H](C)O)NC(=O)[C@H](CCC(N)=O)NC(=O)[C@H](Cc4ccccc4)NC(=O)[C@H](C)NC(=O)[C@H](C)NC(=O)[C@H](CCC(=O)O)NC(=O)[C@H](CC(=O)O)NC3=O)NC1=O)CCCN2C(C)=O (stereo partly drawn) [I-642, Ac-PL3-Asp-Ile-B5-Asp-Glu-Ala-Ala-Phe-Gln-S8-Phe-BztA-Thr-NH2] | – | 48 µM (≈ 89.1 µg/mL) | 2.512 | 118 nM | – | IC50 ([1]; read-out: FP EC50): 118 nM |
| COc1ccccc1C[C@H](NC(=O)[C@]1(C)CCCCCCC=CCCCC2(CCCC=CC[C@]3(CCCN3C(C)=O)C(=O)N[C@@H](CC(=O)O)C(=O)N[C@@H](C)C(=O)N2)C(=O)N[C@@H](CC(=O)O)C(=O)N[C@@H](CCC(=O)O)C(=O)N[C@@H](C)C(=O)N[C@@H](C)C(=O)N[C@@H](Cc2ccccc2)C(=O)N[C@@H](CC(N)=O)C(=O)N1)C(=O)N[C@@H](Cc1csc2ccccc12)C(=O)N[C@@H](Cc1c[nH]cn1)C(N)=O (stereo partly drawn) [I-510, Ac-PL3-Asp-Ala-B5-Asp-Glu-Ala-Ala-Phe-Asn-S8-2OMeF-BztA-His-NH2] | – | 43 µM (≈ 80.2 µg/mL) | 2.057 | 128 nM | – | IC50 ([1]; read-out: FP EC50): 128 nM |
| C[C@@H]1NC(=O)[C@H](C)NC(=O)[C@H](CN(CC(=O)O)CC(F)(F)F)NC(=O)[C@H](CC(=O)O)NC(=O)C2(CCCC=CCCCOC(=O)N3CC[C@@](C(=O)N[C@@H](Cc4ccccc4Cl)C(=O)N[C@@H](Cc4csc5ccccc45)C(=O)N[C@@H](CCC(N)=O)C(N)=O)(C3)NC(=O)[C@H]([C@@H](C)O)NC(=O)[C@H](Cc3ccccc3)NC1=O)CCCC=CC[C@]1(CCCN1C(=O)CN=[N+]=[N-])C(=O)N[C@@H](CC(=O)O)C(=O)N[C@@H](CC(C)(C)C)C(=O)N2 (stereo partly drawn) [I-1059, AzAc-PL3-Asp-Npg-B5-Asp-TfeGA-Ala-Ala-Phe-Thr-PyrS2-2C1F-BztA-Gln-NH2] | – | 42 µM (≈ 87.6 µg/mL) | – | – | – | IC50 ([1]; FP EC50 (nM), fluorescence polarization, beta-catenin): 42 nM; chromatographic logD ([3]; pH 7.4): 2.44 |
| CC(=O)N1CCC[C@]12CC=CCCCC1(CCCC=CCCCCCC[C@@](C)(C(=O)N[C@@H](Cc3ccccc3)C(=O)N[C@@H](Cc3csc4ccccc34)C(=O)N[C@@H](CCC(N)=O)C(N)=O)NC(=O)[C@H](C(C)C)NC(=O)[C@H](Cc3ccccn3)NC(=O)[C@H](C)NC(=O)[C@H](C)NC(=O)[C@H](CCC(=O)O)NC(=O)[C@H](CC(=O)O)NC1=O)NC(=O)[C@H](C)NC(=O)[C@H](CC(=O)O)NC2=O (stereo partly drawn) [I-387, Ac-PL3-Asp-Ala-B5-Asp-Glu-Ala-Ala-2pyrA-Val-S8-Phe-BztA-Gln-NH2] | 2620 nM | 48 µM (≈ 87 µg/mL) | 2.136 | 2620 nM | – | – |
| CC(=O)N1CCC[C@]12CC=CCCCC1(CCCC=CCCCCCC[C@@](C)(C(=O)N[C@@H](Cc3ccccc3)C(=O)N[C@@H](Cc3csc4ccccc34)C(=O)N[C@@H](Cc3c[nH]cn3)C(N)=O)NC(=O)[C@H]([C@@H](C)O)NC(=O)[C@H](Cc3ccccc3)NC(=O)[C@H](C)NC(=O)[C@H](C)NC(=O)[C@H](CCC(=O)O)NC(=O)[C@H](CC(=O)O)NC1=O)NC(=O)[C@H](C)NC(=O)[C@H](CC(=O)O)NC2=O (stereo partly drawn) [I-420, Ac-PL3-Asp-Ala-B5-Asp-Glu-Ala-Ala-Phe-Thr-S8-Phe-BztA-His-NH2] | – | – | – | 128 nM | 2.16 | Solubility ([2]; Solubility (uM)): 24 µM (≈ 43.8 µg/mL) |

Source: patent publication US20240116985A1, “STAPLED PEPTIDES AND METHODS THEREOF” (priority 2020, published 2024)
